According to patent US8426420B2, “Heterocyclic pyrazole-carboxamidesas P2Y12 antagonists” (Sanofi, priority 2007, dated 2013):

test system: human platelet rich plasma; assay: Inhibition of human platelet aggregation, 96-well assay; format: cell-based; details: ADP-induced aggregation, human platelet rich plasma, 96-well plates, AUC of absorbance over 20 minutes
Method: Inhibition of Human Platelet Aggregation
Alternatively to a binding assay which measures a compound's ability to bind to the P2Y12 receptor, the effect on cellular function was also determined. This ability of the compound was evaluated in two platelet aggregation assays: in 96-well plates and with the “Born”-method using single cuvettes.
Whole blood was collected from healthy volunteers using 20 ml syringes containing 2 ml of ACD-A Aqua-Citrat-Dextrose-A, Fresenius). The anticoagulated whole blood was transferred into 15 ml polypropylene conical tubes (10 ml per tube). The tubes were centrifuged for 15 minutes at 150×g at RT without using the centrifuge brake. This procedure leads to a pellet of cellular components and a supernatant of platelet rich plasma (PRP). The PRP layer was collected from each tube and pooled for each donor. To avoid carry over of cellular components following centrifugation, approximately 5 ml of PRP was left in the tube. The platelet concentration was determined using a Coulter Counter.
The 15 ml tubes containing the pellet of cellular components were centrifuged again for 10 minutes at 1940×g. This pelleted out most particulate blood constituents remaining, leaving a layer of Platelet Poor Plasma (PPP). The PPP was collected for each donor. The PRP layer, previously set aside, was diluted with PPP to a final concentration of approximately 3×E8 platelets/ml with the PPP.
The human platelet aggregation assay is performed in 96-well plates using a microtiter plate reader (SpectraMax Plus 384 with SoftMax Pro software from Molecular Devices). In the plate 15 μl of test compound at 10× final concentration in NaCl is mixed with 120 μl fresh PRP and incubated for 5 minutes. Following that incubation period, 15 μl of 40 μM ADP is added to the reaction mix. This addition of ADP is sufficient to induce aggregation in the absence of an inhibitor. The plates are then transferred to the microplate reader and aggregation is measured over 20 minutes. The instrument settings include:
Absorbance at 650 nm, run time 20 minutes with readings in 1-minute intervals and 50 seconds shaking between readings all performed at 37° C.

In order of falling IC50:
1. CCOC(=O)N1CCN(C(=O)[C@H](CCC(=O)O)NC(=O)c2cc(OCC(=O)N3CCC[C@H]3C(=O)NC)n(-c3ccccc3)n2)CC1 [Example 7, 4-{(S)-4-Carboxy-2-[(5-{2-[(S)-2-(2-methylcarbamoyl)-pyrrolidin-1-yl]-2-oxo-ethoxy}-1-phenyl-1H-pyrazole-3-carbonyl)-amino]-butyryl}-piperazine-1-carboxylic acid ethyl ester]  1460 nM
2. 4-[2-({5-[2-((S)-2-Cyclobutylcarbamoyl-pyrrolidin-1-yl)-2-oxo-ethoxy]-1-phenyl-1H-pyrazole-3-carbonyl}-amino)-acetyl]-piperazine-1-carboxylic acid 2-methoxy-ethyl ester [Example 254]  750 nM
3. CCOC(=O)N1CCN(C(=O)[C@H](CCC(=O)O)NC(=O)c2cc(OCC(=O)N3CC(F)(F)C[C@H]3C(=O)NC3CC3)n(-c3ccccc3)n2)CC1 [Example 165, 4-[(S)-4-Carboxy-2-({5-[2-((S)-2-cycloproylcarbamoyl-4,4-difluoro-pyrrolidin-1-yl)-2-oxo-ethoxy]-1-phenyl-1H-pyrazole-3-carbonyl}-amino)-butyryl]-piperazine-1-carboxylic acid ethyl ester]  340 nM
4. CCOC(=O)N1CCN(C(=O)[C@H](CCC(=O)O)NC(=O)c2cc(OCC(=O)N3CC(F)(F)C[C@H]3C(=O)NCC3CC3)n(-c3ccccc3)n2)CC1 [Example 166, 4-[(S)-4-Carboxy-2-({5-[2-((S)-2-(cycloproylmethyl-carbamoyl)-4,4-difluoro-pyrrolidin-1-yl)-2-oxo-ethoxy]-1-phenyl-1H-pyrazole-3-carbonyl}-amino)-butyryl]-piperazine-1-carboxylic acid ethyl ester]  80 nM

same assay, conditions: Homo sapiens, Platelet, 20 min

In order of rising IC50:
1. CCCOC(=O)N1CCN(C(=O)[C@H](CCC(=O)OC)NC(=O)c2cc(OCC(=O)N3CCC[C@H]3C(=O)NC3CCC3)n(-c3ccccc3)n2)CC1 [Example 190, 4-[(S)-2-({5-[2-((S)-2-Cyclobutylcarbamoyl-pyrrolidin-1-yl)-2-oxo-ethoxy]-1-phenyl-1H-pyrazole-3-carbonyl}-amino)-4-methoxycarbonyl-butyryl]-piperazine-1-carboxylic acid propyl ester]  180 nM
2. CCOC(=O)N1CCN(C(=O)[C@H](CCC(=O)O)NC(=O)c2cc(O[C@H](C)C(=O)N3CCC[C@H]3C(=O)N3CCCC3)n(-c3ccccc3)n2)CC1 [Example 64, 4-{(S)-4-Carboxy-2-[(5-{(R)-1-methyl-2-oxo-2-[(S)-2-(pyrrolidine-1-carbonyl)-pyrrolidin-1-yl]-ethoxy}-1-phenyl-1H-pyrazole-3-carbonyl)-amino]-butyryl}-piperazine-1-carboxylic acid ethyl ester]  190 nM
3. CCOC(=O)N1CCN(C(=O)[C@H](CCC(=O)O)NC(=O)c2cc(O[C@@H](C)C(=O)N3CCC[C@H]3C(=O)NCC(F)(F)F)n(-c3ccccc3)n2)CC1 [Example 70, 4-[(S)-4-Carboxy-2-({5-[(S)-2-((S)-2-(2,2,2-trifluoroethylcarbamoyl)-pyrrolidin-1-yl)-1-methyl-2-oxo-ethoxy]-1-phenyl-1H-pyrazole-3-carbonyl}-amino)-butyryl]-piperazine-1-carboxylic acid ethyl ester]  260 nM
4. CCOC(=O)N1CCN(C(=O)[C@H](CCC(=O)O)NC(=O)c2cc(O[C@@H](C)C(=O)N3CCC[C@H]3C(=O)NC3CC3)n(-c3ccccc3)n2)CC1 [Example 66, 4-[(S)-4-Carboxy-2-({5-[(S)-2-((S)-2-cyclopropylcarbamoyl-pyrrolidin-1-yl)-1-methyl-2-oxo-ethoxy]-1-phenyl-1H-pyrazole-3-carbonyl}-amino)-butyryl]-piperazine-1-carboxylic acid ethyl ester]  330 nM
5. CCOC(=O)N1CCN(C(=O)[C@H](CCC(=O)OCCCOC)NC(=O)c2cc(OCC(=O)N3CCC[C@H]3C(=O)NC3CCC3)n(-c3ccccc3)n2)CC1 [Example 200, 4-[(S)-2-({5-[2-((S)-2-Cyclobutylcarbamoyl-pyrrolidin-1-yl)-2-oxo-ethoxy]-1-phenyl-1H-pyrazole-3-carbonyl}-amino)-4-(3-methoxy-propoxycarbonyl)-butyryl]-piperazine-1-carboxylic acid ethyl ester]  420 nM
6. CCOC(=O)N1CCN(C(=O)[C@H](CCC(=O)O)NC(=O)c2cc(OCC(=O)N3CCC[C@H]3C(=O)NC3CCC3)n(-c3ccccc3)n2)[C@@H](C)C1 [Example 153, (S)-4-[(S)-4-Carboxy-2-({5-[2-((S)-2-cyclobutylcarbamoyl-pyrrolidin-1-yl)-2-oxo-ethoxy]-1-phenyl-1H-pyrazole-3-carbonyl}-amino)-butyryl]-3-methyl-piperazine-1-carboxylic acid ethyl ester]  430 nM
7. C[C@H](NC(=O)c1cc(OCC(=O)N2CCC[C@H]2C(=O)NC2CCC2)n(-c2ccccc2)n1)C(=O)N1CCN(C(=O)OC2CCC2)CC1 [Example 193, 4-[(S)-2-({5-[2-((S)-2-Cyclobutylcarbamoyl-pyrrolidin-1-yl)-2-oxo-ethoxy]-1-phenyl-1H-pyrazole-3-carbonyl}-amino)-propionyl]-piperazine-1-carboxylic acid cyclobutyl ester]  460 nM
8. CCNC(=O)[C@@H]1CCCN1C(=O)COc1cc(C(=O)N[C@@H](CCC(=O)O)C(=O)N2CCN(C(=O)OCC)CC2)nn1-c1ccccc1 [Example 8, 4-{(S)-4-Carboxy-2-[(5-{2-[(S)-2-ethylcarbamoyl-pyrrolidin-1-yl]-2-oxo-ethoxy}-1-phenyl-1H-pyrazole-3-carbonyl)-amino]-butyryl}-piperazine-1-carboxylic acid ethyl ester]  470 nM
9. CCOC(=O)N1CCN(C(=O)[C@H](CCC(=O)OCC2(C)COC2)NC(=O)c2cc(OCC(=O)N3CCC[C@H]3C(=O)NC3CCC3)n(-c3ccccc3)n2)CC1 [Example 203, 4-[(S)-2-({5-[2-((S)-2-Cyclobutylcarbamoyl-pyrrolidin-1-yl)-2-oxo-ethoxy]-1-phenyl-1H-pyrazole-3-carbonyl}-amino)-4-(3-methyl-oxetan-3-ylmethoxycarbonyl)-butyryl]-piperazine-1-carboxylic acid ethyl ester]  490 nM
10. CCOC(=O)N1CCN(C(=O)[C@H](CCC(=O)O)NC(=O)c2cc(OCC(=O)N3CCC[C@H]3C(=O)N3CCCC3)n(-c3ccccc3)n2)CC1 [Example 17, 4-{(S)-4-Carboxy-2-[(5-{2-oxo-2-[(S)-2-(pyrrolidine-1-carbonyl)-pyrrolidin-1-yl]-ethoxy}-1-phenyl-1H-pyrazole-3-carbonyl)-amino]-butyryl}-piperazine-1-carboxylic acid ethyl ester]  600 nM
11. CCOC(=O)N1CCN(C(=O)[C@H](CC(=O)O)NC(=O)c2cc(OCC(=O)N3CCC[C@H]3C(=O)NCCF)n(-c3ccccc3)n2)CC1 [Example 59, 4-{(S)-3-Carboxy-2-[(5-{2-[(S)-2-(2-fluoro-ethylcarbamoyl)-pyrrolidin-1-yl]-2-oxo-ethoxy}-1-phenyl-1H-pyrazole-3-carbonyl)-amino]-propionyl}-piperazine-1-carboxylic acid ethyl ester]  630 nM
12. CCOC(=O)N1CCN(C(=O)[C@H](CCC(=O)O)NC(=O)c2cc(OCC(=O)N3CCN(C(C)=O)CC3)n(-c3ccccc3)n2)CC1 [Example 27, 4-[(S)-2-({5-[2-(4-Acetyl-piperazin-1-yl)-2-oxo-ethoxy]-1-phenyl-1H-pyrazole-3-carbonyl}-amino)-4-carboxy-butyryl]-piperazine-1-carboxylic acid ethyl ester]  760 nM
13. O=C(NCC(=O)N1CCN(C(=O)[C@H]2C[C@@H]2F)CC1)c1cc(OCC(=O)N2CCC[C@H]2C(=O)NC2CCC2)n(-c2ccccc2)n1 [Example 245, 5-[2-((S)-2-Cyclobutylcarbamoyl-pyrrolidin-1-yl)-2-oxo-ethoxy]-1-phenyl-1H-pyrazole-3-carboxylic acid {2-[4-((1R,2S)-2-fluoro-cyclopropanecarbonyl)-piperazin-1-yl]-2-oxo-ethyl}-amide]  800 nM
14. CCOC(=O)N1CCN(C(=O)[C@H](CCC(=O)OCC2CCOC2)NC(=O)c2cc(OCC(=O)N3CCC[C@H]3C(=O)NC3CCC3)n(-c3ccccc3)n2)CC1 (stereo partly drawn) [Example 202, 4-[(S)-2-({5-[2-((S)-2-Cyclobutylcarbamoyl-pyrrolidin-1-yl)-2-oxo-ethoxy]-1-phenyl-1H-pyrazole-3-carbonyl}-amino)-4-(tetrahydro-furan-3-ylmethoxycarbonyl)-butyryl]piperazine-1-carboxylic acid ethyl ester]  840 nM
15. CCOC(=O)N1CCN(C(=O)[C@H](CCC(=O)O)NC(=O)c2cc(OCC(=O)N3CC[C@H]3C(=O)NC3CC3)n(-c3ccccc3)n2)CC1 [Example 40, 4-[(S)-4-Carboxy-2-({5-[2-((S)-2-cyclopropylcarbamoyl-azetidin-1-yl)-2-oxo-ethoxy]-1-phenyl-1H-pyrazole-3-carbonyl}-amino)-butyryl]-piperazine-1-carboxylic acid ethyl ester]  860 nM
